Source: PubChem BioAssay (NCI)
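How tested: cells in 96-well plates exposed to compound for 48 hours at five concentrations. Abbreviation: GI50, concentration required for 50% inhibition of growth. TGI: concentration producing complete growth inhibition.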

Key:
Assay in all cases: growth of human tumour cells (NCI), 48 h
[1] = system: NCI-H23 lung
[2] = system: OVCAR-8 ovarian
[3] = system: OVCAR-5 ovarian
[4] = system: NCI-H460 lung
[5] = system: SK-OV-3 ovarian
[6] = system: U251 CNS
[7] = system: OVCAR-4 ovarian
[8] = system: SF-295 CNS
[9] = system: NCI/ADR-RES ovarian
[10] = system: UO-31 renal

Compound	GI50 [1] [nM]	TGI [1] [nM]	GI50 [2] [nM]	TGI [2] [nM]	GI50 [3] [nM]	TGI [3] [nM]	GI50 [4] [nM]	TGI [4] [nM]	GI50 [5] [nM]	TGI [5] [nM]	GI50 [6] [nM]	TGI [6] [nM]	GI50 [7] [nM]	TGI [7] [nM]	GI50 [8] [nM]	TGI [8] [nM]	GI50 [9] [nM]	TGI [9] [nM]	GI50 [10] [nM]	TGI [10] [nM]
O=C(N[C@@H](c1ccc(Cl)c(Cl)c1)C1CNC1)c1ccc2cnccc2c1	336	10800	1450	5070	340	14200	214	11000	239	6860	475	4260	1800	12700	91.4	1210	12100	27100	543	10000
NCCNc1c2c(c(NCCN)c3[nH]ccc13)C(=O)c1ccccc1C2=O	74.1	475	151	612	279	960	766	2880	790	5520	–	842	296	1340	< 34.1	352	13300	29600	13800	> 60000
CN(C)CC[PH+](c1ccccc1)c1ccccc1.CN(C)CC[PH+](c1ccccc1)c1ccccc1.[Cl-].[Pd+2]	> 100000	> 100000	> 100000	> 100000	> 100000	> 100000	> 100000	> 100000	> 100000	> 100000	> 100000	> 100000	> 100000	> 100000	> 100000	> 100000	> 100000	> 100000	> 100000	> 100000
CN(C)C(n1cc2c(c1)-c1ccc(Cl)cc1C(c1ccccc1F)=NC2)n1cc2c(c1)-c1ccc(Cl)cc1C(c1ccccc1F)=NC2	–	24400	–	> 100000	–	> 100000	–	> 100000	–	> 100000	–	> 100000	–	> 100000	–	> 100000	–	> 100000	–	> 100000
COc1cccc2c1C(=O)c1c(O)c3c(c(O)c1C2=O)C[C@](O)(C(=O)CO)C[C@H]3O[C@@H]1C[C@@H](NC(=O)CCCCCN(C)C2(c3ccc(F)cc3)CC3CCC2C3)[C@H](O)[C@@H](C)O1 (some centres not stated)	3490	10700	1180	3940	988	2190	555	1370	7460	14700	739	1490	1090	2690	5790	13300	13000	50000	6100	12500
COc1cc2c(cc1OCCCNC(=O)c1cccc3c(=O)c4ccccc4[nH]c13)N=C[C@@H]1CCCN1C2=O	< 10	< 22.5	10	–	< 10	30600	–	3760	5580	> 100000	< 10	> 48800	< 10	10800	< 50.8	4460	379	> 26400	–	16900
CC(=O)OC12C=CC(=O)N1c1ccccc1C(=O)O2 (configuration not stated)	–	> 100000	–	> 100000	–	> 100000	–	> 100000	–	> 100000	–	> 100000	–	> 100000	–	> 100000	> 100000	> 100000	–	> 100000
Nc1c(C(=O)Nc2ccncc2)sc2nc3c(cc12)CCCCCCCC3	900	1740	1540	50000	897	1640	995	1830	846	1610	933	1730	861	1600	907	1690	921	1780	772	1490
CC[C@H]1[C@@H]2C=C[C@@H]3[C@H]4C/C=C\C(=O)NCCC[C@@H]5NC(=O)/C(=C(O)/C=C/[C@@H]4C[C@@H]3[C@H]2C[C@H]1C)C5=O	1810	4280	333	1370	1660	3500	409	1840	1730	3480	1820	3330	664	2160	1420	2800	815	2360	546	1910
CCCN1C(=O)N(CCC)C2C1NC(=S)N2/N=C/C=C/c1ccccc1OC (configuration not stated)	2660	> 100000	1560	> 62600	3610	> 100000	418	16500	518	> 100000	588	27400	1950	> 100000	487	29400	498	> 100000	1260	> 100000
C#C[C@]1(O)CCC2C3CCc4cc(O)ccc4C3CC[C@@]21C (some centres not stated)	4700	25700	5800	37200	17300	> 100000	4020	17800	3450	49600	4090	17500	6760	33600	2700	12200	3140	25400	6810	28800
C=C(C)[C@@H]1CC[C@]2(C)[C@H](CC=C3[C@@H]4CC(C)(C)CC[C@]4(C(N)=O)CC[C@]32C)[C@@]1(C)CCC#N	3660	> 100000	5240	> 100000	4350	> 100000	2930	8620	4620	> 100000	4350	> 100000	2560	> 100000	3910	> 100000	3750	> 100000	2550	7520
O=C(CC1(O)C(=O)N(Cc2ccccc2)c2ccc(F)cc21)c1ccc(C(=O)NCC2CCC3(CC2)OOC2(CCCCC2)OO3)cc1 (configuration not stated)	246	634	267	723	1170	4890	210	487	2900	> 24000	251	674	1810	4620	654	1690	373	1140	180	352
